Results published in publication PMC9458095, “In Vitro Evaluation of In Silico Screening Approaches in Search for Selective ACE2 Binding Chemical Probes” (Molecules, 2022).
Read-outs that look alike come from different tables or passages of the source.

What was measured:
[1] = biological target: human ACE2 (CHEMBL3736); conditions: ChEMBL 26, cited from earlier work
[2] = biological target: T1, ACE2 (Homo sapiens, UniProt Q9BYF1); assay: ACE2 inhibitor screening kit (Abcam ab273373), fluorescence enzymatic assay, MCA-based peptide substrate; type: biochemical; conditions: for inhibition at 20 µM: 20 µM final concentration, n = 1, 25 µL, read-out: Inhibition% (primary screen hits)
T1 construct: purchased Abcam ab273373
Description: Despite the commercial availability of ACE2 Inhibitor Screening Kits the optimal HTS protocols are still not published and their validation is still needed. Among available kits the Abcam, ab273373 was used. This assay is based on the ability of active angiotensin-converting enzyme (ACE2) to cleave a synthetic MCA-based peptide substrate (the structure not disclosed by the manufacturer) and release a free fluorophore. The released fluorophore can be easily quantified using a standard fluorescence microplate reader. During this screening campaign, the next milestones were estimated: (i) optimization of the test compounds solutions used volume (without loss of performance and analytical signal recognition); (ii) optimization of reaction volume and concentrations of the reagents; (iii) determination of IC50 for known inhibitor MLN-4760 (EN300-22203532) and reference inhibitor from the kit (the structure not disclosed by manufacturer) in new validated conditions; (iv) primary screening of 577 selected compounds; (v) hit confirmation; (vi) dose-response curve (DRC) of confirmed hits.
The commercial Abcam (ab273373) Angiotensin II Converting Enzyme (ACE2) Inhibitor Screening Kit and 384-well 3544 Corning low volume, black clear bottom plates were used. The reagent preparation was performed in accord with kit instruction. In order to prepare the required enzyme concentration, we dissolved […] of stock enzyme solution (concentration in stock and MW not disclosed) in 198 µL of ACE2 Dilution Buffer (provided by the Manufacturer), then aliquoted the entire volume into 25 µL and frozen at −70 °C. A substrate solution calculated for one assay well contained 0.5 µL of stock Substrate solution and 9.5 µL of ACE2 Assay Buffer, stored at −70 °C. Reference inhibitor from the kit (five µL in stock, structure, and MW not disclosed) was not aliquoted, 50 µL of ACE Assay Buffer should be added directly before the experiment.
Primary screen assay conditions. Volume: 25 µL; Concentrations: enzyme and substrate solutions prepared according to the instructions and further diluted both to 1:2 in the Assay mixture. Assay buffer: provided by the Manufacturer (composition not disclosed, see SI for reference). Compounds: 20 µM final concentrations in the Assay mixture, n = 1. Reference Inhibitors: (1) Ref. inhibitor provided by the Manufacturer, 300 nM, (n = 4); (2) Compound from Enamine library EN300-22203532, 2.5 nM, (n = 4). Temperature: 25 °C. The enzyme solution was added into corresponding plate wells (columns 1–22), and buffer was added into wells corresponding to negative (Enzyme) control (columns 23, 24). Plates were incubated for 15 min at 25 °C. Then Substrate solution was added to all experimental wells. Plates were centrifuged and measurement started in kinetic mode (Exc/Em 320/420 nm). Results processing: two time points were chosen from kinetic curves for all wells and corresponding RFU values were obtained. ΔRFU/Δt were calculated for each curve and % of inhibition values were calculated from the equation: 100%—ΔRFU of sample/ΔRFU of Enzyme control*100%, according to the recommendation of the Manufacturer.
DRC and IC50 calculations. Concentrations: enzyme and substrate solutions were diluted both to 1:2 in the Assay mixture. Assay buffer: provided by the Manufacturer (composition not disclosed). Temperature: 25 °C. Compounds: 2-fold titrated from 100 µM, n = 4. Reference Inhibitors: (1) Ref. inhibitor Abcam 2-fold titrated from 1.5 µM, (n = 4); (2) Ref. inhibitor EN300-22203532, 2-fold titrated from 20 nM, (n = 4). Compounds were incubated with enzyme for 15 min. Plates were measured in kinetic mode (Exc/Em 320/420 nm). […]

[3] = biological target: T1, ACE2; assay: as above; type: biochemical; conditions: DRC measured three times each, 3-fold titration, 25 µL, enzyme and substrate 1:2; read-out: IC50 of reference inhibitors in optimized conditions
[4] = dose-response of confirmed hits, as in Figure 10, read-out: IC50(ACE2)
[5] = dose-response, 2-fold titrated, n = 4, 15 min incubation with enzyme, 25 °C, enzyme and substrate 1:2, read-out: IC50 (DRC, Figure 9)

T1 sequence (Q9BYF1 18-805): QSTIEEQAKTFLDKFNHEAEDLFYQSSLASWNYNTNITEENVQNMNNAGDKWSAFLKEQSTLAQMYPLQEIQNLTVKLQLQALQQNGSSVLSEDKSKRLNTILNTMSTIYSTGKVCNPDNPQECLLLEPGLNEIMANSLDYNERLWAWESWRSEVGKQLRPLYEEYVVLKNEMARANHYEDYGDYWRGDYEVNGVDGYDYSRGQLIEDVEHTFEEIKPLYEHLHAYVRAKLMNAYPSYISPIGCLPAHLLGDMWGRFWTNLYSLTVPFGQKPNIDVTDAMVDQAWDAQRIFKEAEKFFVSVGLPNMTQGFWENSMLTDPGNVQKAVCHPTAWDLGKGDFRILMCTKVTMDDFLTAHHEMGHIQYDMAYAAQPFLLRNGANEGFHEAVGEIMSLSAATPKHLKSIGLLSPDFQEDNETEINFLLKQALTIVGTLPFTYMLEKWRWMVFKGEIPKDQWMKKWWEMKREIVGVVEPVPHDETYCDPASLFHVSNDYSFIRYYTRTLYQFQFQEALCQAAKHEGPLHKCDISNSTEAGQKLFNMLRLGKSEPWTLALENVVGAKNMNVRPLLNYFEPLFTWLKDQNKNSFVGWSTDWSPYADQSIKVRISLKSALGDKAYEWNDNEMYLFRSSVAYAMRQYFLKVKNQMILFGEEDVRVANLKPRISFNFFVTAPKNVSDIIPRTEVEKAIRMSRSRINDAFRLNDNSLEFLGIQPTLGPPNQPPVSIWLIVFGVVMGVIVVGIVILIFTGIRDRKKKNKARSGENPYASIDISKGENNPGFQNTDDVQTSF

SMILES	inhibition at 20 µM ([2]; enzyme and substrate 1:2)	IC50 [2, 4]	IC50 [2, 5]	also measured
CC[C@@H](C)[C@H](S)C(=O)N[C@@H](Cc1ccc(OCc2ccc(F)c(F)c2)cc1)C(=O)O [CHEMBL251808, CC[C@@H](C)[C@H](S)C(=O)N[C@@H](Cc1ccc(OCc2ccc(F)c(F)c2)cc1)C(O)=O]	–	–	–	Ki ([1]; known selective ACE2 inhibitors): 0.00085 µM
CC(NC(=O)CCCCC(=O)O)c1ccc(-c2ccc(N(C)C)cc2)cc1 (centres unmarked) [Compound 1]	38.8%	45.8 µM	–	–
Cc1ccc2nc(-c3ccc(NC(=O)CCC(=O)O)cc3)sc2c1 [Compound 2, Cc1ccc2nc(sc2c1)-c1ccc(NC(=O)CCC([O-])=O)cc1]	74.1%	–	110 µM	–
O=C(O)CC(NC(=O)c1ccc(-c2ccc(F)cc2)o1)c1ccc(F)cc1 (centres unmarked) [Compound 3]	28.9%	46.4 µM	–	–
Cc1ccc(CCC2CCN(C(=O)CN3CCCC3C(=O)O)CC2)cc1 (centres unmarked) [Compound 4]	54%	16.8 µM	–	–

Further lines, with some results ahead:

inhibition at 20 µM ([2]; enzyme and substrate 1:2)	IC50 [2, 4]	IC50 [2, 5]	SMILES	also measured
29.8%	53.6 µM	–	O=C(O)CSc1ccc(C(=O)/C=C/c2cnn(-c3ccccc3)c2)cc1F [Compound 5, OC(=O)CSc1ccc(cc1F)C(=O)C=Cc1cnn(c1)-c1ccccc1]	–
50.1%	–	67.3 µM	CCC(C(=O)O)[S+]([O-])Cc1csc(-c2ccc3c(c2)OCO3)n1 (centres unmarked) [Compound 6]	–
52.1%	269 µM	–	O=C(NC1CN(c2ccccc2)C1=O)c1ncccc1O (centres unmarked) [Compound 7]	–
–	–	0.2 µM	CC(C)C[C@H](N[C@@H](Cc1cncn1Cc1cc(Cl)cc(Cl)c1)C(=O)O)C(=O)O [MLN-4760, reference compound]	%inh_Ref EN300-22203532, Plate 1 ([2]; primary screen QC, 2.5 nM, n = 4, plate 1): 69.9%; %inh_Ref EN300-22203532, Plate 2 ([2]; primary screen QC, 2.5 nM, n = 4, plate 2): 72.2%; IC50 [3]: 0.0009 to 0.0025 µM; IC50 ([1]; known selective ACE2 inhibitor): 0.00044 µM
